Read-outs that look alike come from different tables or passages of the source.
Key:
T. cruzi CA-I/72 = experiment: T. cruzi in vitro assay, C2C12 host cell; format: cell-based, Trypanosoma cruzi
L. donovani = L. donovani in vitro assay; format: cell-based, Leishmania donovani
T. brucei = T. brucei proliferation inhibition assay; format: cell-based, Trypanosoma brucei; conditions: read-out: T. brucei EC50 ± S.D.
[1] = test system: Leishmania major amastigotes; experiment: Leishmania major amastigote assay; format: cell-based; conditions: read-out: L. maj EC50
[2] = Trypanosoma cruzi, C2C12, read-out: T. cruzi EC50
[3] = Leishmania donovani, read-out: L. don EC50, B10R host cell line

O=C(Cn1ccnc1[N+](=O)[O-])NCc1ccccc1 [Benznidazole, reference compound]
EC50 (T. cruzi CA-I/72; [2]): 3.77 µM

CN1CCN(c2ccc(-c3ccc4nncc(Nc5ccc(OC(F)(F)F)cc5)c4c3)cc2)CC1 [Compound 24a, 6-(4-(4-Methylpiperazin-1-yl)phenyl)-N-(4-(trifluoromethoxy)phenyl)cinnolin-4-amine]
EC50 (L. donovani; [3]): 0.52 µM
EC50 (T. brucei; Trypanosoma brucei): 0.41 ± 0.024 µM
EC50 (T. cruzi CA-I/72; [2]): 0.87 µM
EC50 ([1]; Leishmania major): > 21 µM

CN1CCN(S(=O)(=O)c2ccc(-c3ccc4c(Nc5ncccn5)cnnc4c3)cc2)CC1 [Compound 16b, 7-(4-((4-Methylpiperazin-1-yl)sulfonyl)phenyl)-N-(pyrimidin-2-yl)cinnolin-4-amine]
EC50 (L. donovani; [3]): > 10 µM
EC50 (T. brucei; Trypanosoma brucei): 11 ± 1.5 µM
EC50 (T. cruzi CA-I/72; [2]): > 10 µM
EC50 ([1]; Leishmania major): > 11 µM

COc1ccc(Nc2cnnc3ccc(-c4ccc(S(=O)(=O)N5CCN(C)CC5)cc4)cc23)nc1 [Compound 19a, N-(5-Methoxypyridin-2-yl)-6-(4-((4-methylpiperazin-1-yl)sulfonyl)phenyl)cinnolin-4-amine]
EC50 (L. donovani; [3]): 4.9 µM
EC50 (T. brucei; Trypanosoma brucei): 1.9 ± 0.073 µM
EC50 (T. cruzi CA-I/72; [2]): 3.8 µM
EC50 ([1]; Leishmania major): > 20 µM

CN1CCN(S(=O)(=O)c2ccc(-c3ccc4c(Nc5cnccn5)cnnc4c3)cc2)CC1 [Compound 15b, 7-(4-((4-Methylpiperazin-1-yl)sulfonyl)phenyl)-N-(pyrazin-2-yl)cinnolin-4-amine]
EC50 (L. donovani; [3]): 5.52 µM
EC50 (T. brucei; Trypanosoma brucei): 9.7 ± 2.1 µM
EC50 (T. cruzi CA-I/72; [2]): 6.5 ± 2.3 µM
EC50 ([1]; Leishmania major): > 22 µM

COc1ccc(Nc2cnnc3cc(-c4ccc(N5CCN(C)CC5)cc4)ccc23)cc1 [Compound 23b, N-(4-Methoxyphenyl)-7-(4-(4-methylpiperazin-1-yl)phenyl)cinnolin-4-amine]
EC50 (T. brucei; Trypanosoma brucei): 0.078 ± 0.031 µM
EC50 (T. cruzi CA-I/72; [2]): 1.1 µM
EC50 ([1]; Leishmania major): > 24 µM

CN1CCCN(c2ncc(-c3ccc4nncc(Nc5ccc(OC(F)(F)F)cc5)c4c3)cn2)CC1 [Compound 31a, 6-(2-(4-Methyl-1,4-diazepan-1-yl)pyrimidin-5-yl)-N-(4-(trifluoromethoxy)phenyl)cinnolin-4-amine]
EC50 (L. donovani; [3]): > 10 µM
EC50 (T. brucei; Trypanosoma brucei): 0.25 ± 0.11 µM
EC50 (T. cruzi CA-I/72; [2]): > 10 µM
EC50 ([1]; Leishmania major): > 20 µM

CN1CCN(c2ccc(-c3ccc4nncc(Nc5ncc(Cl)cn5)c4c3)cc2)CC1 [Compound 22a, N-(5-Chloropyrimidin-2-yl)-6-(4-(4-methylpiperazin-1-yl)phenyl)cinnolin-4-amine]
EC50 (L. donovani; [3]): > 10 µM
EC50 (T. brucei; Trypanosoma brucei): 0.15 ± 0.068 µM
EC50 (T. cruzi CA-I/72; [2]): 0.31 µM
EC50 ([1]; Leishmania major): > 4.6 µM

COc1ccc(Nc2cnnc3ccc(-c4ccc(N5CCN(C)CC5)cc4)cc23)cc1 [Compound 23a, N-(4-Methoxyphenyl)-6-(4-(4-methylpiperazin-1-yl)phenyl)cinnolin-4-amine]
EC50 (L. donovani; [3]): 2.3 µM
EC50 (T. brucei; Trypanosoma brucei): 0.31 ± 0.18 µM
EC50 (T. cruzi CA-I/72; [2]): 1.7 µM
EC50 ([1]; Leishmania major): 4.7 µM

COc1cnc(Nc2cnnc3ccc(-c4cnc(N5CCCN(C)CC5)nc4)cc23)nc1 [Compound 32a, N-(5-Methoxypyrimidin-2-yl)-6-(2-(4-methyl-1,4-diazepan-1-yl)pyrimidin-5-yl)cinnolin-4-amine]
EC50 (L. donovani; [3]): 8 µM
EC50 (T. brucei; Trypanosoma brucei): 2.9 ± 0.8 µM
EC50 (T. cruzi CA-I/72; [2]): > 10 µM
EC50 ([1]; Leishmania major): > 23 µM

CN1CCCN(S(=O)(=O)c2ccc(-c3ccc4nncc(Nc5ccc(OC(F)(F)F)cc5)c4c3)cc2)CC1 [Compound 34a, 6-(4-((4-Methyl-1,4-diazepan-1-yl)sulfonyl)phenyl)-N-(4-(trifluoromethoxy)phenyl)cinnolin-4-amine]
EC50 (L. donovani; [3]): 1.8 µM
EC50 (T. brucei; Trypanosoma brucei): 0.65 ± 0.021 µM
EC50 (T. cruzi CA-I/72; [2]): > 10 µM
EC50 ([1]; Leishmania major): > 18 µM

CN1CCN(c2ncc(-c3ccc4nncc(Nc5ccc(OC(F)(F)F)cc5)c4c3)cn2)CC1 [Compound 28a, 6-(2-(4-Methylpiperazin-1-yl)pyrimidin-5-yl)-N-(4-(trifluoromethoxy)phenyl)cinnolin-4-amine]
EC50 (L. donovani; [3]): 1.5 µM
EC50 (T. brucei; Trypanosoma brucei): 1 ± 0.12 µM
EC50 (T. cruzi CA-I/72; [2]): 4.2 µM
EC50 ([1]; Leishmania major): > 21 µM

COc1ccc(Nc2cnnc3ccc(-c4ccc(S(=O)(=O)N5CCN(C)CC5)cc4)cc23)cc1Cl [Compound 17a, N-(3-Chloro-4-methoxyphenyl)-6-(4-((4-methylpiperazin-1-yl)sulfonyl)phenyl)cinnolin-4-amine]
EC50 (L. donovani; [3]): 9.3 µM
EC50 (T. brucei; Trypanosoma brucei): 1.6 ± 0.36 µM
EC50 (T. cruzi CA-I/72; [2]): > 10 µM
EC50 ([1]; Leishmania major): > 19 µM

7-(4-((4-Methyl-1,4-diazepan-1-yl)sulfonyl)phenyl)-N-(4-(trifluoromethoxy)phenyl)cinnolin-4-amine [Compound 20b]
EC50 (T. brucei): 0.58 ± 0.25 µM
EC50 (T. cruzi CA-I/72; read-out: T. cruzi EC50, C2C12 host cell): > 10 µM
EC50 ([1]; amastigotes): > 3.6 µM

CN1CCN(S(=O)(=O)c2ccc(-c3ccc4nncc(Nc5cnccn5)c4c3)cc2)CC1 [Compound 15a, 6-(4-((4-Methylpiperazin-1-yl)sulfonyl)phenyl)-N-(pyrazin-2-yl)cinnolin-4-amine]
EC50 (L. donovani; [3]): > 10 µM
EC50 (T. brucei; Trypanosoma brucei): 1.2 ± 0.18 µM
EC50 (T. cruzi CA-I/72; [2]): > 10 µM
EC50 ([1]; Leishmania major): 7.8 µM

CN1CCN(S(=O)(=O)c2ccc(-c3ccc4nncc(Nc5ncc(Cl)cn5)c4c3)cc2)CC1 [Compound 14a, N-(5-Chloropyrimidin-2-yl)-6-(4-((4-methylpiperazin-1-yl)sulfonyl)phenyl)cinnolin-4-amine]
EC50 (L. donovani; read-out: L. don EC50, B10R host cell line): 0.069 µM
EC50 (T. brucei; Trypanosoma brucei): 0.82 ± 0.19 µM
EC50 (T. cruzi CA-I/72; [2]): 4.1 µM
EC50 ([1]; Leishmania major): 0.005 µM

COc1ccc(Nc2cnnc3cc(-c4ccc(S(=O)(=O)N5CCN(C)CC5)cc4)ccc23)cc1 [Compound 18b, N-(4-Methoxyphenyl)-7-(4-((4-methylpiperazin-1-yl)sulfonyl)phenyl)cinnolin-4-amine]
EC50 (T. brucei; Trypanosoma brucei): 12 ± 0.63 µM
EC50 (T. cruzi CA-I/72; [2]): 3.2 µM
EC50 ([1]; Leishmania major): > 20 µM

COc1ccc(Nc2cnnc3cc(-c4cnc(N5CCCN(C)CC5)nc4)ccc23)cc1 [Compound 30b, N-(4-Methoxyphenyl)-7-(2-(4-methyl-1,4-diazepan-1-yl)pyrimidin-5-yl)cinnolin-4-amine]
EC50 (T. brucei; Trypanosoma brucei): 0.24 ± 0.088 µM
EC50 (T. cruzi CA-I/72; [2]): 0.29 µM
EC50 ([1]; Leishmania major): > 23 µM

COc1ccc(Nc2cnnc3ccc(-c4cnc(N5CCCN(C)CC5)nc4)cc23)cc1 [Compound 30a, N-(4-Methoxyphenyl)-6-(2-(4-methyl-1,4-diazepan-1-yl)pyrimidin-5-yl)cinnolin-4-amine]
EC50 (L. donovani; [3]): > 10 µM
EC50 (T. brucei; Trypanosoma brucei): 2.1 ± 0.64 µM
EC50 (T. cruzi CA-I/72; [2]): 5.1 µM
EC50 ([1]; Leishmania major): > 23 µM

COc1ccc(Nc2cnnc3ccc(-c4cnc(N5CCN(C)CC5)nc4)cc23)cc1 [Compound 27a, N-(4-Methoxyphenyl)-6-(2-(4-methylpiperazin-1-yl)pyrimidin-5-yl)cinnolin-4-amine]
EC50 (L. donovani; [3]): > 10 µM
EC50 (T. brucei; Trypanosoma brucei): 1.3 ± 0.27 µM
EC50 (T. cruzi CA-I/72; [2]): 4.4 µM
EC50 ([1]; Leishmania major): > 23 µM

COc1ccc(Nc2cnnc3ccc(-c4ccc(S(=O)(=O)N5CCN(C)CC5)cc4)cc23)cc1 [Compound 18a, N-(4-Methoxyphenyl)-6-(4-((4-methylpiperazin-1-yl)sulfonyl)phenyl)cinnolin-4-amine]
EC50 (L. donovani; [3]): 3.4 µM
EC50 (T. brucei; Trypanosoma brucei): 0.39 ± 0.2 µM
EC50 (T. cruzi CA-I/72; [2]): 8 µM
EC50 ([1]; Leishmania major): > 20 µM

COc1ccc(Nc2cnnc3cc(-c4cnc(N5CCN(C)CC5)nc4)ccc23)cc1 [Compound 27b, N-(4-Methoxyphenyl)-7-(2-(4-methylpiperazin-1-yl)pyrimidin-5-yl)cinnolin-4-amine]
EC50 (T. brucei; Trypanosoma brucei): 0.36 ± 0.076 µM
EC50 (T. cruzi CA-I/72; [2]): 3.3 µM
EC50 ([1]; Leishmania major): > 4.7 µM

CN1CCN(c2ncc(-c3ccc4nncc(Nc5ncc(Cl)cn5)c4c3)cn2)CC1 [Compound 26a, N-(5-Chloropyrimidin-2-yl)-6-(2-(4-methylpiperazin-1-yl)pyrimidin-5-yl)cinnolin-4-amine]
EC50 (L. donovani; [3]): > 10 µM
EC50 (T. cruzi CA-I/72; [2]): 2.7 µM
EC50 ([1]; Leishmania major): > 4.6 µM

CN1CCCN(c2ncc(-c3ccc4nncc(Nc5ncc(Cl)cn5)c4c3)cn2)CC1 [Compound 29a, N-(5-Chloropyrimidin-2-yl)-6-(2-(4-methyl-1,4-diazepan-1-yl)pyrimidin-5-yl)cinnolin-4-amine]
EC50 (L. donovani; [3]): 0.22 µM
EC50 (T. brucei; Trypanosoma brucei): 1.7 ± 0.5 µM
EC50 (T. cruzi CA-I/72; [2]): 6.7 µM
EC50 ([1]; Leishmania major): > 22 µM

COc1cnc(Nc2cnnc3ccc(-c4ccc(S(=O)(=O)N5CCCN(C)CC5)cc4)cc23)nc1 [Compound 35a, N-(5-Methoxypyrimidin-2-yl)-6-(4-((4-methyl-1,4-diazepan-1-yl)sulfonyl)phenyl)cinnolin-4-amine]
EC50 (T. brucei; Trypanosoma brucei): 0.27 ± 0.008 µM
EC50 (T. cruzi CA-I/72; [2]): > 10 µM
EC50 ([1]; Leishmania major): > 20 µM

COc1ccc(Nc2cnnc3cc(-c4ccc(S(=O)(=O)N5CCN(C)CC5)cc4)ccc23)nc1 [Compound 19b, N-(5-Methoxypyridin-2-yl)-7-(4-((4-methylpiperazin-1-yl)sulfonyl)phenyl)cinnolin-4-amine]
EC50 (L. donovani; [3]): > 10 µM
EC50 (T. cruzi CA-I/72; [2]): > 10 µM
EC50 ([1]; Leishmania major): > 20 µM

CN1CCN(S(=O)(=O)c2ccc(-c3ccc4nncc(Nc5ccc(OC(F)(F)F)cc5)c4c3)cc2)CC1 [Compound 20a, 6-(4-((4-Methylpiperazin-1-yl)sulfonyl)phenyl)-N-(4-(trifluoromethoxy)phenyl)cinnolin-4-amine]
EC50 (L. donovani; [3]): 0.11 µM
EC50 (T. brucei; Trypanosoma brucei): 0.35 ± 0.26 µM
EC50 (T. cruzi CA-I/72; [2]): 6.8 µM
EC50 ([1]; Leishmania major): 4.8 µM

CN1CCCN(S(=O)(=O)c2ccc(-c3ccc4nncc(Nc5ncc(Cl)cn5)c4c3)cc2)CC1 [Compound 33a, N-(5-Chloropyrimidin-2-yl)-6-(4-((4-methyl-1,4-diazepan-1-yl)sulfonyl)phenyl)cinnolin-4-amine]
EC50 (L. donovani; [3]): > 10 µM
EC50 (T. brucei; Trypanosoma brucei): 0.99 ± 0.29 µM
EC50 (T. cruzi CA-I/72; [2]): 5.3 µM
EC50 ([1]; Leishmania major): 17 µM

C[C@@H]1[C@H](O)[C@@H](C)/C=C/C=C/C=C/C=C/C=C/C=C/C=C/[C@H](O[C@@H]2O[C@H](C)[C@@H](O)[C@H](N)[C@@H]2O)C[C@@H]2O[C@](O)(C[C@@H](O)C[C@@H](O)[C@H](O)CC[C@@H](O)C[C@@H](O)CC(=O)O[C@H]1C)C[C@H](O)[C@H]2C(=O)O [Amphotericin B, reference compound]
EC50 (L. donovani; [3]): 0.07 µM

CN1CCN(S(=O)(=O)c2ccc(-c3ccc4nncc(Nc5ncccn5)c4c3)cc2)CC1 [Compound 16a, 6-(4-((4-Methylpiperazin-1-yl)sulfonyl)phenyl)-N-(pyrimidin-2-yl)cinnolin-4-amine]
EC50 (L. donovani; [3]): 9 µM
EC50 (T. cruzi CA-I/72; [2]): > 10 µM
EC50 ([1]; Leishmania major): > 22 µM
